Experimental data: patent publication US11987804B2, “Rapamycin resistant cells” (Seattle Children's Hospital, priority 2018, dated 2024)

Tests used:
CD4+ T cells [1] = assay: Selective expansion of DISC/HA-FOXP3 edited Treg cells (flow cytometry for HA tag and FOXP3); format: cell-based, human; conditions: 50 ng/mL IL-2, 10 nM Rapamycin or 100 nM AP21967
Text: This Example illustrates the use of gene editing technology to knock-in a construct encoding the DISC and a promoter upstream of the endogenous FOXP3 (Forkhead box P3) locus in CD4+ T cells. […] In brief, a CRISPR/CAS9 ribonucleoprotein containing a guide RNA (gRNA) specific for a locus 5′ of exon 1 of FOXP3 was used in combination with an adeno-associated virus 6 (AAV6) donor template for FOXP3 gene editing The gRNA included a spacer having the sequence of SE ID NO:58. An ectopic MND promoter was introduced to drive DISC expression upstream of endogenous FOXP3. Expression of FOXP3 was designed to be in-frame with an N-terminal hemagglutinin (HA) epitope tag and nuclear localization sequence to generate a chimeric protein.

[2] = tested on: primary human CD4+ T cells; assay: Three-phase expansion protocol for μDISC edTreg (flow cytometry HA/FOXP3, cell counts); format: cell-based; conditions: for Day-3 flow cytometry Q4 / Day-10 flow cytometry Q3 / Day-10 flow cytometry Q4 / Day-15 flow cytometry Q4: Expansion Phase 0 additive 50 μg/mL IL-2, 10 nM rapamycin or 100 nM AP21967; for Day-3 flow cytometry Q1 / Day-10 flow cytometry Q1 / Day-15 flow cytometry Q1: Q1 = HA- FOXP3+; for Day-10 flow cytometry Q3 / Day-10 flow cytometry Q4 / Day-10 flow cytometry Q1: after Expansion Phase 1; for Day-15 flow cytometry Q4 / Day-15 flow cytometry Q3 / Day-15 flow cytometry Q1: after Expansion Phase 2
Method: Recovered cells after Expansion Phase 0 were then transferred to the G-Rex flask and expanded in rapamycin (Expansion Phase 1; Days 3-10) to allow DISC edTreg enrichment, followed by addition of anti-CD3/CD28 beads (Expansion Phase 2; Days 10-15). The same AAV construct as shown in FIG. 13A was used in this experiment.
After Expansion Phase 1 (Day 10), successfully edited cells were assessed by flow cytometry.

CD4+ T cells [3] = assay: Regulatory T cell marker phenotype of DISC-expressing edited Treg cells; format: cell-based, human; conditions: IL-2 50 ng/mL, rapamycin 10 nM or AP21967 100 nM
μDISC GFP edTreg = assay: In vivo expansion of μDISC GFP edTreg by rapamycin in humanized mouse model; parameters: species or system NOD-scid-IL2RgNULL (NSG) mice; conditions: for CD25+ GFP+ edTreg cells / CD25− GFP+ edTreg cells / CD127+ GFP+ edTreg cells / CD127− GFP+ edTreg cells: peripheral blood seven days post-transfer, rapamycin 0.1 mg/kg i.p. every other day, representative mouse
Method: This Example describes experiments performed to test the capacity of edTreg cells expressing a μDISC construct to be expanded in vivo by rapamycin treatment. […] There are also conditions under which it is not desirable to expand Tregs, for example, in some cases of infection. Therefore, a useful feature of engineered cells provided herein having Treg features is the ability to exert control on expansion in vivo. Experiments were carried out to determine whether rapamycin could increase the number of μDISC edTregs in vivo using a humanized mouse model, which included human cells transferred into immune-incompetent NOD-scid-IL2RgNULL (NSG) mice. For these experiments, cells were edited using an AAV donor to drive cis-linked expression of the μDISC and endogenous FOXP3 from the MND promoter. This AAV donor template incorporates a GFP fusion protein at the N-terminal of endogenous FOXP3. The GFP-labeled FOXP3 fusion protein was used to facilitate the ability to detect gene-edited cells within the in vivo cell samples. […] The beads were then removed at Day −1. […] In the three-phase expansion protocol used in this experiment, the timing of Expansion Phase 0 flow cytometry was on Day 2. Recovered cells after Expansion Phase 0 were then transferred to the G-rex® flask and expanded in the presence of 10 nM rapamycin to select edited cells (Expansion Phase 1; Days 3-9) and to allow DISC edTreg enrichment, followed by flow cytometry and addition of anti-CD3/CD28 beads (Expansion Phase 2; Days 9-16; in the presence of 10 nM rapamycin). Flow cytometry was performed at Days 2, 9, 12, and 16 to monitor edited GFP+FOXP3+ cell expansion.
NSG mice were pre-treated with rapamycin in order to saturate rapamycin binding proteins and provide rapamycin in serum.
The μDISC GFP edTregs (or mock-edited cells) were then injected i.v. according to the following general procedure. Starting from Day −4, intraperitoneal (i.p.) injection of rapamycin 0.1 mg/kg was carried out every other day until Day 21. At Day 0, irradiation was performed and μDISC edTreg was i.v. injected. Peripheral blood samples were collected to either test for rapamycin levels (Day 2) or for flow cytometry (Days 7, 14, 21, and 28) to track the phenotype and number of transferred human T cells including GFP+ edTreg cells.
To illustrates expansion of μDISC GFP edTreg in rapamycin treated vs. vehicle, flow cytometry results from peripheral blood seven days post-transfer into NSG are shown in Table 11 below (Gate: live, hCD45+, hCD4+), where human T cell markers and GFP+ are shown for a representative mouse from each cohort.

[4] = Expansion Phase 0 additive, 10 nM rapamycin or 100 nM AP21967
[5] = peripheral blood Day 7 and Day 14, rapamycin treated vs. vehicle

| Compound | percentage of double positive cells (expressing HA-FOXP3), DISC/HA-FOXP3 (CD4+ T cells [1]; 7 day post-treatment) [%] | percentage of double positive cells (expressing HA-FOXP3), Mock (CD4+ T cells [1]; 7 day post-treatment) [%] | percentage of double positive cells (expressing HA-FOXP3), DISC/HA-FOXP3 (CD4+ T cells [1]; 15 day post-treatment) [%] | Day-3 flow cytometry Q4 [2] [%] | Day-3 flow cytometry Q3 [2, 4] [%] | Day-3 flow cytometry Q1 [2, 4] [%] | Day-10 flow cytometry Q3 [2] [%] | Day-10 flow cytometry Q4 [2] [%] | Day-10 flow cytometry Q1 [2, 4] [%] | Day-15 flow cytometry Q4 [2] [%] | Day-15 flow cytometry Q3 [2, 4] [%] | Day-15 flow cytometry Q1 [2, 4] [%] | CD25+ FOXP3+ (CD4+ T cells [3]) [%] | CD25+ FOXP3− (CD4+ T cells [3]) [%] | CD 127+ FOXP3+ (CD4+ T cells [3]) [%] | CD 127+ FOXP3− (CD4+ T cells [3]) [%] | CTLA4+ FOXP3+ (CD4+ T cells [3]) [%] | CTLA4+ FOXP3− (CD4+ T cells [3]) [%] | ICOS+ FOXP3+ (CD4+ T cells [3]) [%] | ICOS+ FOXP3− (CD4+ T cells [3]) [%] | other results |
| --- | --- | --- | --- | --- | --- | --- | --- | --- | --- | --- | --- | --- | --- | --- | --- | --- | --- | --- | --- | --- | --- |
| CO[C@H]1[C@@H](O)[C@H](C)C[C@H](C)/C=C/C=C/C=C(\C)[C@@H](c2c[nH]c3c(C)cccc23)C[C@@H]2CC[C@@H](C)[C@@](O)(O2)C(=O)C(=O)N2CCCC[C@H]2C(=O)O[C@H]([C@H](C)C[C@@H]2CC[C@@H](O)[C@H](OC)C2)C[C@H](O)[C@H](C)/C=C(\C)[C@H]1O [AP21967, C-16-(S)-7-methylindolerapamycin] | 45.7 | 0.033 | 82.1 | 86.00 | 1.74 | 0.39 | 5.54 | 13.3 | 0.59 | 10.7 | 4.93 | 0.33 | 22.5 | 20.4 | 1.63 | 40.3 | 13.6 | 30.8 | 36.8 | 2.99 | Day-3 flow cytometry Q2 ([2]; Q2 = HA+ FOXP3+ successfully edited cells, Expansion Phase 0 additive, 10 nM rapamycin or 100 nM AP21967): 11.90%; LAG3+ FOXP3+ (CD4+ T cells [3]): 8.81%; LAG3+ FOXP3− (CD4+ T cells [3]): 31.5% |
| CO[C@H]1C[C@@H]2CC[C@@H](C)[C@@](O)(O2)C(=O)C(=O)N2CCCC[C@H]2C(=O)O[C@H]([C@H](C)C[C@@H]2CC[C@@H](O)[C@H](OC)C2)CC(=O)[C@H](C)/C=C(\C)[C@@H](O)[C@@H](OC)C(=O)[C@H](C)C[C@H](C)/C=C/C=C/C=C/1C [Rapamycin, (3S,6R,7E,9R,10R,12R,14S,15E,17E,19E,21S,23S,26R,27R,34aS)-9,10,12,13,14,21,22,23,24,25,26,27,32,33,34,34a-hexadecahydro-9,27-dihydroxy-3-[(1R)-2-[(1S,3R,4R)-4-hydroxy-3-methoxycyclohexyl]-1-methylethyl]-10,21-dimethoxy-6,8,12,14,20,26-hexamethyl-23,27-epoxy-3H-pyrido[2,1-c][1,4] oxaazacyclohentriacontine-1,5,11,28,29 (4H,6H,31H)-pentone] | 47.6 | 0.022 | 85.6 | 91.70 | 1.48 | 0.38 | 9.31 | 20.1 | 0.44 | 15.7 | 7.56 | 1.08 | 28.9 | 14.5 | 1.47 | 40.8 | 15.5 | 29.4 | 38.2 | 2.38 | CD25+ GFP+ edTreg cells (μDISC GFP edTreg; No Radiation): 79.9%; CD25− GFP+ edTreg cells (μDISC GFP edTreg; No Radiation): 8.37%; CD127+ GFP+ edTreg cells (μDISC GFP edTreg; No Radiation): 0.57; CD127− GFP+ edTreg cells (μDISC GFP edTreg; No Radiation): 88.2; CD25+ GFP+ edTreg cells (μDISC GFP edTreg; Radiation (200 Gy), gate live, hCD45+, hCD4+): 82.6%; CD25− GFP+ edTreg cells (μDISC GFP edTreg; Radiation (200 Gy)): 5.52%; CD127− GFP+ edTreg cells (μDISC GFP edTreg; Radiation (200 Gy)): 87.6; CD127+ GFP+ edTreg cells (μDISC GFP edTreg; Radiation): 0.50; number of GFP+ cells in serum sample (μDISC GFP edTreg; [5]): higher; percentage of GFP+ cells (μDISC GFP edTreg; [5]): higher; levels of μDISC GFP edTreg in the peripheral blood (FIG. 17) (μDISC GFP edTreg; tracked weekly for four weeks, rapamycin treated vs. untreated mice): higher levels of μDISC GFP edTreg at each time point, peaking between two and three weeks after cell transfer; LAG3+ FOXP3+ (CD4+ T cells [3]): 7.86%; LAG3+ FOXP3− (CD4+ T cells [3]): 33.3% |
